The record followed here is PubChem BioAssay AID1963856 (Molecular Pharmacology Branch, DTP, NCI, 2024).

pIC50: −log10 of the molar value. Several values for one entry are separate records, joined by “and”; a condition that tells them apart may be missing. Equal values may be shown once. Activity calls are given as the source filed them. Rule for the calls: active = viability on the fitted dose curve at most 10% of control; inactive = the rest. Some results are limits rather than exact numbers.

The assay has as its system LG0567-F671-PDC KRAS tumor spheroid viability. In words: Anticancer human tumor LG0567-F671-PDC patient-derived lung adenocarcinoma cell line growth inhibition [KRAS2]. The settings on record: spheroids with HUVEC and MSC; for viability, T/C: stronger effect = lower value. Summed up:
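Combination screen of spheroid viability in tumor-cell co-cultures with endothelial (HUVEC) and mesenchymal stem cell stroma. Each agent was tested in half-log dilutions, topping at clinical Cmax or at 10 microM without a known Cmax.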

Setting [1] is: curve of first compound, second compound 0.1 µM.
[2] abbreviates: curve of first compound, second compound 0.316 µM.
Where [3] appears, read: curve of first compound, second compound 1 µM.
Where [4] appears, read: curve of first compound, second compound 3.16 µM.
[5] abbreviates: second compound 0.1 µM, first compound 0.0316 µM.
Where [6] appears, read: second compound 0.1 µM, first compound 0.1 µM.
The mark [7] stands for this setting: second compound 0.316 µM, first compound 0.0316 µM.
The mark [8] stands for this setting: second compound 0.316 µM, first compound 0.1 µM.
Where [9] appears, read: second compound 1 µM, first compound 0.0316 µM.
Where [10] appears, read: second compound 1 µM, first compound 0.1 µM.
The mark [11] stands for this setting: second compound 3.16 µM, first compound 0.0316 µM.
[12] abbreviates: second compound 3.16 µM, first compound 0.1 µM.
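Throughout, for pIC50: drug exposure lasted seven days after spheroids formed for three days.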
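Throughout, for viability, T/C: drug exposure lasted seven days after spheroids formed for three days; 100% = DMSO vehicle control viability.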

Take `Cn1nccc1Nc1nccc(-c2cc3c(s2)C(C)(C)N(CCN2CCOCC2)C3=O)n1` + CNCc1ccccc1-c1csc(C(C)Nc2nc(C)nc3cc(OC)c(OC)cc23)c1: the pIC50 was 6.24 under setting [1]; 6.25 under setting [2]; 6.47 under setting [3]; 6.10 under setting [4]; > 7.50 (curve of first compound, second compound 10 µM). Also, the viability, T/C is 83.6% under setting [5]; 68.6% under setting [6]; 59.6% (second compound 0.1 µM, first compound 0.316 µM); 44.1% (second compound 0.1 µM, first compound 1 µM); 31.7% (second compound 0.1 µM, first compound 3.16 µM); 32% (second compound 0.1 µM, first compound 10 µM). The viability, T/C is, setting by setting: under setting [7], 66.2%; under setting [8], 65.1%; (second compound 0.316 µM, first compound 0.316 µM) 54.2%; (second compound 0.316 µM, first compound 1 µM) 46%; (second compound 0.316 µM, first compound 3.16 µM) 28.3%; (second compound 0.316 µM, first compound 10 µM) 26.8%. Further, the viability, T/C is 66.2% under setting [9]; 66.1% under setting [10]; 49.7% (second compound 1 µM, first compound 0.316 µM); 35.6% (second compound 1 µM, first compound 1 µM); 29.1% (second compound 1 µM, first compound 3.16 µM); 26.3% (second compound 1 µM, first compound 10 µM). Moreover, the viability, T/C runs as follows: under setting [11], 73.9%; under setting [12], 71.7%; (second compound 3.16 µM, first compound 0.316 µM) 53.3%; (second compound 3.16 µM, first compound 1 µM) 44.7%; (second compound 3.16 µM, first compound 3.16 µM) 36.6%; (second compound 3.16 µM, first compound 10 µM) 1.09%. Besides, the viability, T/C is 0.21% (second compound 10 µM, first compound 0.0316 µM); 0.18% (second compound 10 µM, first compound 0.1 µM); 0.76% (second compound 10 µM, first compound 0.316 µM); 0.16% (second compound 10 µM, first compound 1 µM); 1.91% (second compound 10 µM, first compound 3.16 µM); 0.18% (second compound 10 µM, first compound 10 µM).
For the molecule `CC(C)NCC(C(=O)N1CCN(c2ncnc3c2C(C)CC3O)CC1)c1ccc(Cl)cc1` (centres undefined), the viability, T/C (compound 0.0316 µM) is 101% [middle of 5 runs]; the viability, T/C (compound 0.1 µM) was 83.4% [middle of 5 runs]; the viability, T/C (compound 0.316 µM) is 65.9% [middle of 5 runs]; the viability, T/C (compound 1 µM) was 71.3% [middle of 5 runs]; the viability, T/C (compound 10 µM) was 72.5% [middle of 4 runs]. The outcome (compound 10 µM) was active. Further, where the note is “curve of compound”, the pIC50 is < 5.00 and 5.93.
On to `CC1COCCN1c1cc(-c2ccnn2C)c2ccnc(-c3ccn[nH]3)c2n1` (centres undefined), for which the viability, T/C by setting is: (compound 0.01 µM) 101% [middle of 5 runs]; (compound 0.316 µM) 74% [middle of 5 runs].
Turning to `CN(C)C/C=C/C(=O)Nc1cc2c(Nc3ccc(F)c(Cl)c3)ncnc2cc1O[C@H]1CCOC1` + C=CC(=O)N1CCN(c2nc(OCC3CCCN3C)nc3c2CCN(c2cccc4cccc(C)c24)C3)CC1CC#N, the pIC50 is > 9.50 (curve of first compound, second compound 0.0316 µM); > 9.50 under setting [1]; > 9.50 under setting [2]; > 9.50 under setting [3]; > 9.50 under setting [4]. The viability, T/C runs as follows: (second compound 0.0316 µM, first compound 0.000316 µM) 39.3%; (second compound 0.0316 µM, first compound 0.001 µM) 40.4%; (second compound 0.0316 µM, first compound 0.00316 µM) 41.9%; (second compound 0.0316 µM, first compound 0.01 µM) 29.8%; (second compound 0.0316 µM, first compound 0.0316 µM) 30.4%; (second compound 0.0316 µM, first compound 0.1 µM) 23.5%. In addition, the viability, T/C (second compound 0.1 µM, first compound 0.000316 µM) was 38.1%; the viability, T/C (second compound 0.1 µM, first compound 0.001 µM) is 32%; the viability, T/C (second compound 0.1 µM, first compound 0.00316 µM) was 26.5%; the viability, T/C (second compound 0.1 µM, first compound 0.01 µM) is 34.5%; the viability, T/C under setting [5] was 25.8%; the viability, T/C under setting [6] is 18.5%. In addition, the viability, T/C was 24.8% (second compound 0.316 µM, first compound 0.000316 µM); 28.8% (second compound 0.316 µM, first compound 0.001 µM); 34.4% (second compound 0.316 µM, first compound 0.00316 µM); 30.4% (second compound 0.316 µM, first compound 0.01 µM); 32.1% under setting [7]; 20.1% under setting [8]. In addition, the viability, T/C by setting is: (second compound 1 µM, first compound 0.000316 µM) 29.3%; (second compound 1 µM, first compound 0.001 µM) 32.6%; (second compound 1 µM, first compound 0.00316 µM) 25.1%; (second compound 1 µM, first compound 0.01 µM) 22.2%; under setting [9], 21.2%; under setting [10], 19%. Moreover, the viability, T/C is, setting by setting: (second compound 3.16 µM, first compound 0.000316 µM) 26.5%; (second compound 3.16 µM, first compound 0.001 µM) 10.8%; (second compound 3.16 µM, first compound 0.00316 µM) 15.7%; (second compound 3.16 µM, first compound 0.01 µM) 6.55%; under setting [11], 10.2%; under setting [12], 11.3%.

As a reminder, the pIC50 is the IC50 on a negative log10 scale, so that one unit is a factor of ten. The viability, T/C is the ratio of treated to control.
